The text below walks through data of patent US20150241429A1, “IRHOM2 INHIBITION FOR THE TREATMENT OF COMPLEMENT MEDIATED DISORDERS” (HOSPITAL FOR SPECIAL SURGERY, priority 2012, published 2015).

The test system of assay [1] is macrophages. In words: Phagocytosis of IgG-opsonized red blood cells by macrophages. To be noted: inhibition of TACE with MM. The class given is cell-based. On the procedure:
FIG. 5. (A) TACE-mediated cleavage of CD62L on the cell surface of freshly isolated human neutrophils (representative of 2 experiments). Surface expression of CD62L was assessed by flow cytometry following stimulation with 1 μg/mL of C5a or 25 ng/mL PMA for 20 min in the presence or absence of Marimastat (MM). […] Opsonized sheep red blood cells were stained with CFSE and total fluorescence intensity (TFI) was measured by flow cytometry, n=3, mean+/−SEM; * indicates p>0.05. (C) Release of reactive oxygen species by human monocytes when stimulated with C5a in the presence or absence of Marimastat. ROS was quantified by FACS by measuring the mean intensity of the ROS-reactive dye DHR. […] The Fc domains of pathogenic IgG initiate tissue damage by binding FcγR on effector cells and by activating complement, and FcγRs are critical for the pathogenesis of inflammatory arthritis in the K/B×N serum model (Ji et al., 2002a).

Assay [2] deals with human monocytes. The assay is described as follows: C5a-stimulated oxidative burst (ROS release) in human monocytes. In kind it is cell-based. To be noted: C5a in presence or absence of Marimastat, ROS by FACS (DHR). On the procedure: FIG. 5. (A) TACE-mediated cleavage of CD62L on the cell surface of freshly isolated human neutrophils (representative of 2 experiments). Surface expression of CD62L was assessed by flow cytometry following stimulation with 1 μg/mL of C5a or 25 ng/mL PMA for 20 min in the presence or absence of Marimastat (MM). (B) Quantification of total sheep red blood cells phagocytosed by wild type or Tace−/− bone marrow macrophages. Opsonized sheep red blood cells were stained with CFSE and total fluorescence intensity (TFI) was measured by flow cytometry, n=3, mean+/−SEM; * indicates p>0.05. (C) Release of reactive oxygen species by human monocytes when stimulated with C5a in the presence or absence of Marimastat. ROS was quantified by FACS by measuring the mean intensity of the ROS-reactive dye DHR. […] The Fc domains of pathogenic IgG initiate tissue damage by binding FcγR on effector cells and by activating complement, and FcγRs are critical for the pathogenesis of inflammatory arthritis in the K/B×N serum model (Ji et al., 2002a).

For assay [3], the system named is iRhom2. The assay is described as follows: iRhom2 expression in ex vivo cultures of RA synovial macrophages. In kind it is cell-based, human. To be noted: RA synovial macrophages incubated overnight ± etanercept, n=8. As to the method: FIG. 2. Production of TNFα and other pro-inflammatory molecules is enhanced by TNFα shedding. (A) Quantification of mRNA levels of the indicated genes by qPCR following 30 min pre-treatment with 10 μg/ml etanercept and stimulation with C5a (representative of 3 experiments). (B) qPCR of iRhom2 mRNA in human monocytes treated for the indicated time periods with hTNFα (representative of 4 experiments). (C) Relative iRhom2 expression in RA synovial macrophages compared to macrophages from normal control patients, n=7 for control, and n=8 for RA patients (Nonparametric Mann-Whitney U test) (Gordon et al., 2012). (D) iRhom2 expression in synovial macrophages from RA patients following incubation overnight±etanercept, shown as percent of expression in freshly isolated cells, n=8. […] (F) Decreased TNFα release from C5a, IC and IC+C5a-stimulated cells treated with iR2 siRNA or TACE siRNA compared to untreated controls (representative of 3 independent experiments, mean±s.d. of samples stimulated in duplicates). *: p<0.05.
This, in turn, would also reduce the production of TNFα-dependent cytokines and of iRhom2, a crucial positive regulator of TACE (Adrain et al., 2012; McIlwain et al., 2012; Siggs et al., 2012).

Consider `CNC(=O)[C@@H](NC(=O)[C@H](CC(C)C)[C@H](O)C(=O)NO)C(C)(C)C` [MM, Marimastat], for which the “opsonization (internalization of IgG-opsonized red blood cells)” value in assay [1] is recorded as “did not alter”. For the same molecule, in assay [2], the C5a-stimulated oxidative burst result is “did not alter”.

etanercept: in assay [3], the iRhom2 expression entry is recorded as “substantially reduced”.
